Consider 13 molecules from patent US6277860A, “Furopyridine antibacterials” (Pfizer Inc, priority 1999, dated 2001).

The subject of one test is H. influenzae 54A0131. In words: MIC by serial agar dilution method, H. influenzae 54A0131. It counts as cell-based, Haemophilus influenzae. On the procedure: (§1) MIC: minimum inhibitory concentration; for more detail see below.
(§2) For determination of minimum inhibitory concentration (MIC), serial agar dilution method is used with same incubation condition as described above. The growth of bacteria is monitored by measuring the optical density at 655 nm.
(§3) The compound prepared in Example 1(2R*,3R*-2,3-dihydro-2-[(E)-2-buten-2-yl]-4-hydroxy-3-methyl-5-phenylfuro[2,3-b]pyridine-3-carbaldehyde ) was tested according to the assay method described in pages 12 to 14.

In a further test the test system is E. coli 51A1074. The experiment in a line: MIC by serial agar dilution method, E. coli 51A1074. It is filed as cell-based, Escherichia coli. On the procedure: as §1, §2, §3
In general terms: In agar dilution the substance is mixed into plates at graded concentrations.

For the next test, the system named is S. pyogenes 02C1068. In words: MIC by serial agar dilution method, S. pyogenes 02C1068. It is filed as cell-based. As to conditions: for MIC: Streptococcus pyogenes. On the procedure:
(§4) Other strains which have similar characteristics of resistance to drugs may be also used. Such strains are usually available for those skilled in the art.
as §1
The strain of S. pyogenes 02C1068 was inoculated and grown in tubes, containing 10 ml of TSB with 0.5 ml of lysed horse blood (Nippon Bio-Supply Center), statically for 24 hours at 37° C. After the incubation, the cells were centrifuged and resuspended in a mixture of 50% aqueous glycerol (4 ml) and defibrinated sheep blood (6 ml, Nippon Bio-Supply Center). The resulting cell-suspension was dispensed to cryotubes, 1 ml per vial, and stored at -80° C. until its use.
(§5) Each stock culture, 200 μl for S. aureus and E. coli and 1 ml for E. faecalis, is added to 100 ml of Mueller Hinton medium (DIFCO), mixed and poured into an assay plate. The stock culture (1 ml) of S. pyogenes is inoculated into a tube containing 20 ml TSB and 1.0 ml defibrinated horse blood (Nippon Bio-Supply Center), and incubated statically at 37° C. for 24 hours. The incubated culture (5 ml) and 5 ml of sheep blood (Nippon Bio-Supply Center) were added to Mueller Hinton medium (100 ml), mixed and poured into an assay plate.
as §2, §3

In another test the test system is S. pyogenes 02C1079. The experiment in a line: MIC by serial agar dilution method, S. pyogenes 02C1079. It counts as cell-based. On the procedure:
as §1, §2, §3

Test [1] deals with Streptococcus agalactiae 02B1023. The experiment in a line: MIC by serial agar dilution method, Streptococcus agalactiae 02B1023. It counts as cell-based. As to the method: as §1, §2, §3
Test [2] concerns Moraxella catarrhalis 87A1055. The experiment in a line: MIC by serial agar dilution method, Moraxella catarrhalis 87A1055. It counts as cell-based. As to the method: as §1, §2, §3
In another test the test system is S. hemolyticus 01E1006. In words: MIC by serial agar dilution method, S. hemolyticus 01E1006. It counts as cell-based. On the procedure:
as §1, §2, §3

For another test, the system named is S. aureus 01A1120. In words: MIC by serial agar dilution method, S. aureus 01A1120. It counts as cell-based, Staphylococcus aureus. On the procedure: as §1, §2, §3
In the next test the test system is Escherichia coli 51A0266. In words: MIC by serial agar dilution method, Escherichia coli 51A0266. It counts as cell-based. As to the method: as §4, §1
(§6) Each strain of S. aureus 01A1105, E faecalis 03A1069 and E. coli 51A0266 is inoculated and grown in tube containing 10 ml of Trypticase Soy Broth (TSB, DIFCO), overnight at 37° C. shaking at 200 rpm. The cell-concentration of the culture is adjusted by dilution with TSB and 50% aqueous glycerol to an optical density of 1.4 at 600 nm (light path=1 cm) and a final glycerol concentration of 20%. The diluted culture is dispensed to cryotubes, 1 ml per vial, and stored at -80° C. until its use.
Each stock culture, 200 μl for S. aureus and E. coli and 1 ml for E. faecalis, is added to 100 ml of Mueller Hinton medium (DIFCO), mixed and poured into an assay plate. The stock culture (1 ml) of S. pyogenes is inoculated into a tube containing 20 ml TSB and 1.0 ml defibrinated horse blood (Nippon Bio-Supply Center), and incubated statically at 37° C. for 24 hours. […]
For determination of minimum inhibitory concentration (MIC), serial agar dilution method is used with same incubation condition as described above. The growth of bacteria is monitored by measuring the optical density at 655 nm. […]

A further test concerns S. pneumoniae 02J1095. In words: MIC by serial agar dilution method, S. pneumoniae 02J1095. It counts as cell-based, Streptococcus pneumoniae. As to the method:
as §1, §2, §3

In test [3] the test system is Staphylococcus aureus 01A1095. In words: MIC by serial agar dilution method, Staphylococcus aureus 01A1095. It is filed as cell-based. As to the method:
as §1, §2, §3

A further test has as its system E. coli 51A1075. The experiment in a line: MIC by serial agar dilution method, E. coli 51A1075. It counts as cell-based, Escherichia coli. As to the method:
as §1, §2, §3

The subject of test [4] is Enterococcus faecalis 03A1069. In words: MIC by serial agar dilution method, Enterococcus faecalis 03A1069. It counts as cell-based. As to the method:
as §4, §1, §6, §5, §2, §3

The subject of test [5] is Haemophilus influenzae 54A0085. The experiment in a line: MIC by serial agar dilution method, Haemophilus influenzae 54A0085. It is filed as cell-based. On the procedure: as §1, §2, §3
For another test, the system named is S. aureus 01A1105. In words: MIC by serial agar dilution method, S. aureus 01A1105. It is filed as cell-based, Staphylococcus aureus. As to the method:
as §4, §1, §6, §5, §2, §3

The test system of another test is S. pneumoniae 02J1046. The experiment in a line: MIC by serial agar dilution method, S. pneumoniae 02J1046. It counts as cell-based, Streptococcus pneumoniae. On the procedure:
as §1, §2, §3

The test system of the next test is E. coli 51A1073. In words: MIC by serial agar dilution method, E. coli 51A1073. It counts as cell-based, Escherichia coli. As to the method: as §1, §2, §3
The test system of another test is various bacteria. The experiment in a line: Antibacterial assay, overall result in words. It counts as cell-based. As to the method:
Sample solution is loaded and dried on a paper disk (i.d. 6 mm, thin, Advantec) which is placed on the assay plate and incubated overnight at 37° C. The activity is determined by measuring the size of growth-inhibition zone around the disk. As controls, vancomycin 1 μg and tetracycline 1 μg disks are used.
as §2, §3

The subject of another test is E. coli 51A1051. In words: MIC by serial agar dilution method, E. coli 51A1051. It counts as cell-based, Escherichia coli. As to the method: as §1, §2, §3
Setting [6] is: Storeptococcus pyogenes 02C1068, antibiotic resistance of strain, read-out: MIC (minimum inhibitory concentration).
Setting [7] is: Staphylococcus aureus 01A1105, antibiotic resistance of strain, read-out: MIC (minimum inhibitory concentration).
[8] abbreviates: Enterococcus faecalis, 03A1069, read-out: MIC (minimum inhibitory concentration).
Where [9] appears, read: Staphylococcus aureus, 01A1105, read-out: MIC (minimum inhibitory concentration).

Converted amounts (≈) assume the structure as drawn. Like-named read-outs stand apart in the source and are kept apart here.

Regarding `C/C=C(\C)[C@H]1Oc2ncc(-c3ccccc3)c(O)c2[C@@]1(C)C=O` (relative stereo) [Example 1, 2R*,3R*-2,3-dihydro-2-[(E)-2-buten-2-yl]-4-hydroxy-3-methyl-5-phenylfuro[2,3-b]pyridine-3-carbaldehyde], the “minimum inhibitory concentration (MIC)” value in the test with H. influenzae 54A0131 is given as 100; in the test with E. coli 51A1074, more than 100; in the test with S. pyogenes 02C1068 (S. pyogenes 02C1068, multidrug resistant), 6.25; with S. pyogenes 02C1079 it was 12.5; in test [1], 25; in test [2], 50. In addition, the “minimum inhibitory concentration (MIC)” value in the test on S. hemolyticus 01E1006 is given as 100; in the test on S. aureus 01A1120, 25; in the test with Escherichia coli 51A0266 (Escherichia coli 51A0266) it was more than 100; in the test with S. pneumoniae 02J1095, 6.25; in [3], 100; in the test on E. coli 51A1075 it was 100. Also, the “minimum inhibitory concentration (MIC)” value in test [4] (Enterococcus faecalis 03A1069, multidrug resistant) is 100; in test [5], 50; with S. aureus 01A1105 (S. aureus 01A1105, multidrug resistant), 25; in the test on S. pneumoniae 02J1046, 25; with E. coli 51A1073, more than 100; with E. coli 51A1051, more than 100. Moreover, the “antibacterial activity against various bacteria” value with various bacteria was “remarkable antibacterial activity against various bacteria”.
`CC[C@H]1OC(=O)[C@H](C)[C@@H](O[C@H]2C[C@@](C)(OC)[C@@H](O)[C@H](C)O2)[C@H](C)[C@@H](O[C@@H]2O[C@H](C)C[C@H](N(C)C)[C@H]2O)[C@](C)(O)C[C@@H](C)CN(C)[C@H](C)[C@@H](O)[C@]1(C)O` [azithromycin]: the MIC in the test on S. pyogenes 02C1068 (setting [6]) is more than 16 µg/mL; in test [4] (Enterococcus faecalis 03A1069, antibiotic resistance of strain, read-out: MIC (minimum inhibitory concentration)), more than 256 µg/mL.
With `CO/N=C(\C(=O)N[C@@H]1C(=O)N2C(C(=O)O)=C(COC(C)=O)CS[C@H]12)c1csc(N)n1` [cefataxime], the MIC in the test on S. aureus 01A1105 (setting [7]) was more than 256 µg/mL.
In the case of `CC(=O)OCC1=C(C(=O)O)N2C(=O)[C@@H](NC(=O)Cc3cccs3)[C@H]2SC1` [cephalothin], the MIC in test [4] (setting [8]) worked out at 128 µg/mL (≈ 323 µM).
Regarding `O=C(N[C@H](CO)[C@H](O)c1ccc([N+](=O)[O-])cc1)C(Cl)Cl` [chloramphenicol], the MIC in test [4] (setting [8]) worked out at 16 µg/mL (≈ 49.5 µM).
Take `O=C(O)c1cn(C2CC2)c2cc(N3CCNCC3)c(F)cc2c1=O` [ciprofloxacin]: the MIC in the test with S. aureus 01A1105 (setting [9]) was more than 32 µg/mL.
Consider `CCC[C@@H]1C[C@@H](C(=O)N[C@@H]([C@H]2O[C@H](SC)[C@H](O)[C@@H](O)[C@H]2O)[C@H](C)Cl)N(C)C1` [clindamycin], for which the MIC is more than 64 µg/mL in the test with S. pyogenes 02C1068 (setting [6]) and more than 256 µg/mL in the test on S. aureus 01A1105 (setting [7]).
For `CC[C@H]1OC(=O)[C@H](C)[C@@H](O[C@H]2C[C@@](C)(OC)[C@@H](O)[C@H](C)O2)[C@H](C)[C@@H](O[C@@H]2O[C@H](C)C[C@H](N(C)C)[C@H]2O)[C@](C)(O)C[C@@H](C)C(=O)[C@H](C)[C@@H](O)[C@]1(C)O` [erythromycin], the MIC with S. pyogenes 02C1068 (02C1068, read-out: MIC (minimum inhibitory concentration)) is more than 64 µg/mL; with S. aureus 01A1105 (setting [9]) it was more than 256 µg/mL.
As to `COc1cccc(OC)c1C(=O)N[C@@H]1C(=O)N2[C@@H]1SC(C)(C)[C@@H]2C(=O)O` [methicillin], the MIC with S. aureus 01A1105 (setting [7]) was more than 256 µg/mL.
`CC1(C)S[C@@H]2[C@H](NC(=O)Cc3ccccc3)C(=O)N2[C@H]1C(=O)O` [penicillin G]: the MIC in [4] (setting [8]) came out at 6 µg/mL (≈ 17.9 µM); in the test with S. aureus 01A1105 (setting [9]), 64 µg/mL (≈ 191 µM).
Regarding `CN(C)C1C(=O)C(C(N)=O)=C(O)C2(O)C(=O)C3=C(O)c4c(O)cccc4C(C)(O)C3CC12` (stereo not drawn) [tetracycline], the MIC with S. aureus 01A1105 (setting [9]) is 128 µg/mL (≈ 288 µM).
Turning to `CN[C@H](CC(C)C)C(=O)N[C@H]1C(=O)N[C@@H](CC(N)=O)C(=O)N[C@H]2C(=O)N[C@H]3C(=O)N[C@H](C(=O)N[C@H](C(=O)O)c4cc(O)cc(O)c4-c4cc3ccc4O)[C@H](O)c3ccc(c(Cl)c3)Oc3cc2cc(c3O[C@@H]2O[C@H](CO)[C@@H](O)[C@H](O)[C@H]2O[C@H]2C[C@](C)(N)[C@H](O)[C@H](C)O2)Oc2ccc(cc2Cl)[C@H]1O` [vancomycin, reference compound], the MIC was more than 128 µg/mL in the test with Escherichia coli 51A0266 (Escherichia coli, 51A0266, read-out: MIC (minimum inhibitory concentration)) and 24 µg/mL (≈ 16.6 µM) in [4] (setting [8]).
For the molecule gentamicin, the “MIC (minimum inhibitory concentration)” value in the test on S. aureus 01A1105 (Staphylococcus aureus 01A1105, antibiotic resistance of strain) was 64 µg/mL.
